Source: patent US11390646B2, “Structure-based peptide inhibitors of α-synuclein aggregation” (The Regents of the University of California, priority 2016, dated 2022)
Where “and” joins values, the source holds several entries; their conditions need not be identical. Equal entries are not always repeated. Entries after “also recorded” stand apart in the source; their conditions may differ. Ends that are not written are not given here.

Tests used:
[1] = target: T1, α-syn seeded by PD tissue-extracted filaments (Homo sapiens, UniProt P37840); experiment: ThT assay of α-syn aggregation seeded by PD brain tissue-extracted filaments; format: biochemical; conditions: filaments from 4 different subjects (seeds A-D)
T1 construct: Full length α-syn was purified according to published protocols; made in house; host or cells: E. coli BL21 (DE3) gold
Text: We extracted insoluble protein aggregates from frozen autopsy PD brain tissues. We obtained tissues from 4 different subjects including the substantia nigra and frontal regions of one subject and temporal and frontal regions of other subjects. Using previously described protocols (Goedert et al. (1992) Neuron 8(1):159-168) that included precipitation with the ionic detergent sarkosyl, we extracted insoluble protein aggregates (FIG. 4A). All samples robustly seeded α-syn aggregation in vitro and in our cell culture model. In vitro addition of 2% seeds increased the ThT fluorescence 4 to 10 fold (FIG. 4B, 4C, 4D) along with a small decrease in the lag time. The seeded samples were then transfected in HEK cells. Consistent with the ThT assay, all seeded samples induced rapid puncta formation (FIG. 4E, 4F, 4G). Thus, fibrils extracted from PD brain tissues seeds recombinant protein, and the aggregates formed upon seeding induce rapid puncta formation in cell culture.
(§1) We tested the effect of the different inhibitors in preventing α-syn aggregation in the presence of PD extracted seeds. […] Next we tested the seeding potency of the α-syn aggregates formed in the presence of PD seeds and the different inhibitors (FIG. 6A).
Fibril formation assays were performed with 50 μM protein concentration in conditions identical to those used for aggregating proteins for seeding assay, but with the addition of ThT. All assays were carried out in black Nunc 96-well optical bottom plates (Thermo Scientific). Plates were agitated at 600 rpm in 3-mm rotation diameter in a Varioskan microplate reader (Thermo) at 37° C. Fluorescence measurements were recorded every 30 mins using λex=444 nm, λcm=482 nm, with an integration time of 200 μs.
Human frozen brain tissues were obtained from UCLA Brain Tumor Translational Resource (BTTR). Sarkosyl insoluble protein was extracted using previously described protocols. Briefly, frozen tissue was homogenized in ice cold PBS using a dounce homogenizer at 200 mg/mL. […]

[2] = system: HEK293T cells expressing YFP-labeled WT α-syn; experiment: Cell culture seeding assay: recombinant α-syn fibrils co-transfected with inhibitors; format: cell-based, human; conditions: for seeding capacity of α-syn fibrils co-transfected with peptide (particles per well normalized to buffer): 125 nM recombinant α-syn fibrils; for concentrations at which seeding was reduced: 125 nM α-syn fibrils co-transfected
Experimental: (§2) We tested the efficacy of the inhibitors to prevent seeding in the cell culture model (FIG. 3A). We transfected the α-syn fibrils along with the different inhibitors. […] S62 was effective at concentrations of 12.5 μM and 6.25 μM in both cell lines (FIG. 3E). S71 was effective at low concentrations of 1.25 μM.
(§3) HEK293T cells that stably express YFP labeled WT α-syn and A53T α-syn were a generous gift from Dr. Marc Diamond. Cells were grown in Dulbecco's modified Eagle's medium (Gibco) supplemented with 10% fetal bovine serum (HyClone), 1% penicillin/streptomycin (Gibco), and 1% glutamax (Gibco) in a humidified incubator in 37° C., 5% CO2.
(§4) 10,000 cells in 90 μL media were plated in 96 well black wall plate (Cat #3660) and allowed to adhere overnight. α-syn was transfected at a final monomer concentration of 125 nM. Lipofectamine 2000 was diluted in OptiMEM media (2.5+17.5 μL) and incubated at room temperature for 5 mins. Protein aggregates were diluted in OptiMEM media (1:20) and sonicated in a water bath sonicator for 3 mins at low pulse. Diluted lipofectamine and protein samples were then mixed 1:1 and incubated at room temperature for 20 mins and thereafter 10 μL was added to each well. All samples are added in triplicates and experiments were repeated a minimum of two times. For co-transfection of α-syn fibrils with inhibitors, the fibrils and inhibitors were diluted in OptiMEM and incubated for 3 hours followed by sonication.
(§5) Puncta formation and cell growth was measured using Celigo Imaging Cell Cytometer allowing for unbiased measurement. Wells were imaged using fluorescent GFP channel and confluence was measured using Celigo analysis software. Images of entire well were taken and particles counted by ImageJ by particle analysis. Same settings were used to analyze wells of one plate at all days. Total particles counted in each well were normalized against the confluence and reported as particles per well.

[3] = system: HEK293T cells expressing YFP-labeled A53T α-syn; experiment: as above; format: cell-based, human; conditions: for seeding capacity of α-syn fibrils co-transfected with peptide (particles per well normalized to buffer): 125 nM recombinant α-syn fibrils; for concentrations at which seeding was reduced: 125 nM α-syn fibrils co-transfected
Experimental: as §2, §3, §4, §5

[4] = system: HEK293T cells expressing YFP-labeled WT α-syn; experiment: Cell culture seeding assay: α-syn aggregated in the presence of inhibitors, mixture transfected, puncta counted; format: cell-based, human; conditions: for seeding competence of α-syn aggregated in presence of peptide (particles/puncta per well): 50 μM α-syn aggregated with 10, 5, 2, 1 fold excess (S71: equimolar and sub-stoichiometric), monitored up to 3 days
Text: (§6) We tested the efficacy of the inhibitors in preventing aggregation in a cell culture model. For these assays, we utilized two HEK293T cells that stably express YFP-labeled full-length WT α-syn and A53T α-syn (Sanders D W, et al. (2014) Neuron 82(6):1271-1288). In this model, lipofectamine-mediated transfection of recombinant fibrils leads to aggregation of the endogenous YFP-labeled protein that are seen as fluorescent puncta. Additionally, these puncta increase in size and number over time. This proliferation of aggregates over time is indicative of a ‘seeding’ phenomenon whereby a small amount of amyloid fibrils induces aggregation of the endogenous protein. First we tested the parent peptide segment, NACore to check its effect on seeding. α-syn was aggregated in the presence of molar excess of NACore (FIG. 2B). The mixture was transfected in cells and puncta formation was visualized and the number of puncta were counted as particles per well. […] Next we aggregated 50 μM α-syn in the presence of 500 μM, 250 μM, 100 μM and 50 μM inhibitor corresponding to 10, 5, 2 and 1 fold excess. The mixture was then transfected in cells and aggregation was monitored over time for up to 3 days by fluorescence imaging (FIG. 2A).
as §3, §4, §5

[5] = system: HEK293T cells expressing YFP-labeled A53T α-syn; experiment: as above; format: cell-based, human; conditions: for seeding competence of α-syn aggregated in presence of peptide (particles/puncta per well): 50 μM α-syn aggregated with 10, 5, 2, 1 fold excess (S71: equimolar and sub-stoichiometric), monitored up to 3 days
Text: as §6, §3, §4, §5

[6] = system: WT YFP-α-syn HEK cells; experiment: PD filament seeded α-syn fibrils transfected along with inhibitors; format: cell-based, human; conditions: two different PD filaments; for seeding by PD filament seeded α-syn fibrils (puncta formation): fluorescence measured up to 6 days
Experimental: We tested the efficacy of the inhibitors in preventing seeding by PD fibrils in cell culture. α-syn aggregates formed in the presence of PD fibrils were transfected in WT HEK cells along with the different inhibitors (FIG. 7A).
(§7) Human frozen brain tissues were obtained from UCLA Brain Tumor Translational Resource (BTTR). Sarkosyl insoluble protein was extracted using previously described protocols. Briefly, frozen tissue was homogenized in ice cold PBS using a dounce homogenizer at 200 mg/mL. The homogenate was then diluted in buffer A (10 mM Tris 7.4, 800 mM NaCl, 1 mM EGTA, 10% Sucrose) to 50 mg/mL in total volume of 1 mL and centrifuged at 20,700 g for 20 min at 4° C. The supernatant was collected in an ultracentrifuge tube and pellet was resuspended in 0.5 mL buffer A followed by centrifugation at 20,700 g for 20 mins at 4° C. The supernatants pooled together. 150 μl 10% sarkosyl (w/v) in Millipore water was then added and incubated for 1 h at room temperature on flat rotating shaker at 700 rpm. The solution was then centrifuged at 100,000 g for 1 h at 4° C. using SW 55 Rotor (Beckman Coulter). The supernatanat was discarded and pellet was washed with 5 mL Buffer A and centrifuged at 100,000 g for 20 mins at 4° C. The pellet was resuspended in 100 μl 50 mM Tris Ph 7.4
10,000 cells in 90 μL media were plated in 96 well black wall plate (Cat #3660) and allowed to adhere overnight. α-syn was transfected at a final monomer concentration of 125 nM. Lipofectamine 2000 was diluted in OptiMEM media (2.5+17.5 μL) and incubated at room temperature for 5 mins. […]
as §5, with “Same settings were used to analyze wells of one plate at all days.” left out

[7] = system: WT α-syn expressing HEK cells; experiment: Seeding potency in cells of α-syn aggregates formed in the presence of PD seeds and inhibitors; format: cell-based, human; conditions: three different PD brain extracted seeds
Text: as §1, §7, §4, §5

[8] = system: A53T α-syn expressing HEK cells; experiment: as above; format: cell-based, human; conditions: three different PD brain extracted seeds
Text: as §1, §7, §4, §5

[9] = system: PC12 cells; conditions: literature reference 20; cited from earlier work
[10] = α-syn aggregated in presence of inhibitor

Row | Substance | inhibition of α-syn aggregation seeded by PD extracted seeds (ThT fluorescence) [1] | seeding capacity of α-syn fibrils co-transfected with peptide (particles per well normalized to buffer) [2] | concentrations at which seeding was reduced [2] | seeding capacity of α-syn fibrils co-transfected with peptide (particles per well normalized to buffer) [3] | concentrations at which seeding was reduced [3] | seeding competence of α-syn aggregated in presence of peptide (particles/puncta per well) [4] | seeding competence of α-syn aggregated in presence of peptide (particles/puncta per well) [5] | concentrations at which seeding by PD filament seeded fibrils was prevented/reduced [6] [µM] | seeding by PD filament seeded α-syn fibrils (puncta formation) [6] | seeding potency of α-syn aggregates formed in presence of PD seeds and inhibitor (puncta formation) [7] | seeding potency of α-syn aggregates formed in presence of PD seeds and inhibitor (puncta formation) [8] | toxicity compared with NACore [9] | duration of reduction of seeding ([2]; single administration, co-transfection) | duration of reduction in seeding [4, 10] | duration of reduction in seeding [5, 10]
1 | GAVVWGVTAVKKGRKKRRQRRRPQ (TAT tag) [Inhibitor S62] | effective against all seeds that were tested; also recorded: efficacy against all seeds | reduce seeding capacity; also recorded: effective | 12.5 µM and 6.25 µM | reduce seeding capacity; also recorded: effective | 12.5 µM and 6.25 µM | not seeding competent; also recorded: seeding incompetent | not seeding competent; also recorded: seeding incompetent |  |  |  |  |  |  |  | 
2 | YGRKKRRQRRRAVVT{N-me-Gly}VTAVAE [Inhibitor S71] | effective against seeds B and D; also recorded: efficacy against all seeds | reduce seeding capacity; also recorded: effective | 1.25 µM | reduce seeding capacity; also recorded: effective | 1.25 µM | not seeding competent; also recorded: reduce the seeding potency of the aggregates | not seeding competent; also recorded: reduce the seeding potency of the aggregates | 6.25 | reduced seeding; also recorded: prevented seeding | effective against all three seeds; also recorded: did not induce puncta formation | effective against all three seeds; also recorded: did not induce puncta formation |  |  |  | 
3 | AVVTGVTAV [SubNACore, AVVTGVTAV] |  |  |  |  |  |  |  |  |  |  |  | not as toxic |  |  | 
4 | GAVVWGVTAVKKKKK (C-terminal poly-lysine tag) [Inhibitor S37, W mutation at Thr72 and poly-lysine tag at the C-terminus] | marginal reduction in ThT fluorescence | reduce seeding capacity; also recorded: significant reduction in seeding | 12.5 µM and 6.25 µM | reduce seeding capacity; also recorded: significant reduction in seeding | 12.5 µM and 6.25 µM | not seeding competent; also recorded: significant reduction in seeding | not seeding competent; also recorded: significant reduction in seeding |  | prevented seeding; also recorded: prevented puncta formation | not effective in reducing the seeding potency of aggregates | not effective in reducing the seeding potency of aggregates |  | up to 2 days | up to 2 days | up to 2 days
